Experimental findings from patent US8450342B2, “Perharidines as CDK inhibitors” (Centre Nationale de la Recherche Scientifique, priority 2008, dated 2013) are described below.

Each structure is given as a SMILES string. pIC50: −log10 of the molar value. Values joined by “and” are separate entries in the source; they are usually repeats but may differ in a detail not shown here. Identical values can stand only once. Like-named read-outs stand apart in the source and are kept apart here.

The test system of assay [1] is SH-SY5Y human neuroblastoma cells. The assay can be described thus: Cell survival (MTS assay), SH-SY5Y. It is filed as cell-based. As to the method:
(§1) SH-SY5Y human neuroblastoma cells were grown in DMEM medium (Invitrogen, Cergy Pontoise, France). […] Human foreskin primary fibroblasts (kindly provided by Dr. Gilles Ponzio) were grown in DMEM supplemented with 2 mM L-glutamine and 20 mM HEPES. All the media were supplemented with antibiotics (penicillin-streptomycin) from Lonza and 10% volume of FCS from Invitrogen. Cells were cultured at 37° C. with 5% CO2. Drug treatments were performed on exponentially growing cultures at the indicated time and concentrations. Control experiments were carried out using appropriate dilutions of DMSO. MDCK cell-lines were used to test compounds PKD.

Assay [2] deals with GSK-3α/β. The assay can be described thus: GSK-3α/β kinase assay. It is filed as biochemical, porcine. The procedure:
(§2) Blank values were subtracted and activities expressed in % of the maximal activity, i.e. in the absence of inhibitors. Controls were performed with appropriate dilutions of dimethylsulfoxide.

Assay [3] deals with T1, CDK5/p25 (Homo sapiens, UniProt Q00535).
T1 construct: made in house
T1 sequence (Q00535 whole entry): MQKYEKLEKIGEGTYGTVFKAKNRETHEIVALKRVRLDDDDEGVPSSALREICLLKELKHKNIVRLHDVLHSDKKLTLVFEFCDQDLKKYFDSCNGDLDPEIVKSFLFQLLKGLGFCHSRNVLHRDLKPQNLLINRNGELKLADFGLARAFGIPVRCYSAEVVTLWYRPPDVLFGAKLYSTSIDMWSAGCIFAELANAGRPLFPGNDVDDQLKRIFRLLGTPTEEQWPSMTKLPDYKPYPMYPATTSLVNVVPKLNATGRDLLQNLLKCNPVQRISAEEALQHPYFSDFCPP
T1 sequence (Q15078 99-307 partner limits assumed): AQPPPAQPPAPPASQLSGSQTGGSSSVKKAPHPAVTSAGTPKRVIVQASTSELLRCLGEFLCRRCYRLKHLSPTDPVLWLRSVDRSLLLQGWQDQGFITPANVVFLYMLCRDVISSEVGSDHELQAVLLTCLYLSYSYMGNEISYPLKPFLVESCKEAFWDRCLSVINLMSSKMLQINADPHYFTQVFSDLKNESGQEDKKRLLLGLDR
The assay can be described thus: CDK5/p25 kinase assay. Format: biochemical. As to the method: (§3) Controls were performed with appropriate dilutions of dimethylsulfoxide.
(§4) ATP (3,000 Ci/mmol; 10 mCi/ml) in a final volume of 30 μl. After 30 min. incubation at 30° C., 25 μl aliquots of supernatant were spotted onto 2.5×3 cm pieces of Whatman P81 phosphocellulose paper, and, 20 sec. later, the filters were washed five times (for at least 5 min. each time) in a solution of 10 ml phosphoric acid/liter of water. The wet filters were counted in the presence of 1 ml ACS (Amersham) scintillation fluid.

Assay [4] deals with T2, CDK9/cyclin T (Homo sapiens, UniProt P50750).
T2 construct: made in house; host or cells: insect cells
T2 sequence (P50750 whole entry): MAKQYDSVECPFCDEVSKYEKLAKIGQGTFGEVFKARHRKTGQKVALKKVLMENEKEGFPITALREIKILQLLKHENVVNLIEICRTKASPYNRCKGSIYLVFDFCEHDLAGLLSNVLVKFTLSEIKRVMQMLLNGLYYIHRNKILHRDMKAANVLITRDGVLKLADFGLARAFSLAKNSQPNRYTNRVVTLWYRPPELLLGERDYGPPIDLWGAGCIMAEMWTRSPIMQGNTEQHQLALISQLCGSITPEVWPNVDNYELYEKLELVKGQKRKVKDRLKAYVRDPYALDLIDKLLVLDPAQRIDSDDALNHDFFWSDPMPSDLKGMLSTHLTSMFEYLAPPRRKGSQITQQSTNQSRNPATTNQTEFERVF
T2 sequence (O60563 whole entry partner): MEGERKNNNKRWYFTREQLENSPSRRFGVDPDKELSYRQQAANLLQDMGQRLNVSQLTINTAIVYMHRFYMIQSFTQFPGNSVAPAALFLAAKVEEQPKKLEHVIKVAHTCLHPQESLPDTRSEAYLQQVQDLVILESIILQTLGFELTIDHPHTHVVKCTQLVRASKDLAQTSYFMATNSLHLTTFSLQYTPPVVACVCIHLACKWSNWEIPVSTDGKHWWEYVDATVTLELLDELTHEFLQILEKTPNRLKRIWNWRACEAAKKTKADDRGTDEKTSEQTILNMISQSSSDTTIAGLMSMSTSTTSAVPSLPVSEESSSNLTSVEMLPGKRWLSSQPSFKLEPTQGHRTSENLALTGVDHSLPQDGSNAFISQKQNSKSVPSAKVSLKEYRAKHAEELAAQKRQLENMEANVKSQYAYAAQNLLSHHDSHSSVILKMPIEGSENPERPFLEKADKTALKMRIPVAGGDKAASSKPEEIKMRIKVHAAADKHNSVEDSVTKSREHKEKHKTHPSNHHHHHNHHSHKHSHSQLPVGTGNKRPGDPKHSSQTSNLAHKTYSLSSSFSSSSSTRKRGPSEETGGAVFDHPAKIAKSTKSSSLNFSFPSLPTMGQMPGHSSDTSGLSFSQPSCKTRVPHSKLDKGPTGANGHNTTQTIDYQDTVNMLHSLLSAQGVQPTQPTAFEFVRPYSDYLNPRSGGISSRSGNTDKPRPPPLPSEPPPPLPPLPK
As to the kind of experiment: CDK9/cyclin T kinase assay. Format: biochemical. As to the method: as §2

In assay [5] the target is CK1δ/ε. As to the kind of experiment: CK1 kinase assay. Format: biochemical, porcine. The procedure:
as §2

The target of assay [6] is CDK1/cyclin B. As to the kind of experiment: CDK1/cyclin B kinase assay. Format: biochemical, starfish. The procedure:
as §3, §4

The target of assay [7] is T3, Erk2 (Sus scrofa, UniProt A0A8W4FG96).
T3 construct: 1000 μg of porcine brain lysate; from tissue; host or cells: porcine brain lysate
T3 sequence (A0A8W4FG96 1-358): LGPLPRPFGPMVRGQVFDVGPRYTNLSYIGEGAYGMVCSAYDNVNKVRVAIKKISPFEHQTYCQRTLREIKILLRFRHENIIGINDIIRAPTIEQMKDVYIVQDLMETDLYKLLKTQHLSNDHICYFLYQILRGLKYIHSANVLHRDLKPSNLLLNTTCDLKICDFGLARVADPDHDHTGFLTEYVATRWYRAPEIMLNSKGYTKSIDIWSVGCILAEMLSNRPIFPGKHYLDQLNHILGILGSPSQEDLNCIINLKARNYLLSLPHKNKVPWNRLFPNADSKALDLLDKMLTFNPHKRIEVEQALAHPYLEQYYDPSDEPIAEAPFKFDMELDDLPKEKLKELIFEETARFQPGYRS
As to the kind of experiment: Competition on agarose beads with porcine brain lysate (silver staining assay), Erk2. It is filed as binding. To be noted: FIG. 1, 500 μM or 100 μM.

The target in assay [8] is T4, pyridoxal kinase (PDXK) (Sus scrofa, UniProt O46560).
T4 construct: 1000 μg of porcine brain lysate; from tissue; host or cells: porcine brain lysate
T4 sequence (O46560 whole entry): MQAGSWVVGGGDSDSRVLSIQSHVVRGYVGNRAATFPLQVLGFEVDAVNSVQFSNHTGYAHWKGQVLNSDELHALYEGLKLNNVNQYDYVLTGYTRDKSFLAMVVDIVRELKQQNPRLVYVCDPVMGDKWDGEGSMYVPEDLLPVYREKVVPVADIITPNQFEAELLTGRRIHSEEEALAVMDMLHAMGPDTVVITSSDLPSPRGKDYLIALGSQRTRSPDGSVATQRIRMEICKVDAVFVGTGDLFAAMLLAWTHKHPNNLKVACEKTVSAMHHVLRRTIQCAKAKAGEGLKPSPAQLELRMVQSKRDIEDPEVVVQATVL
As to the kind of experiment: Competition on agarose beads with porcine brain lysate (silver staining assay), pyridoxal kinase. Format: binding. To be noted: FIG. 1, 500 μM or 100 μM. The source says: Indeed, the interaction of the compounds of the invention with pyridoxal kinase has been determined by the following method: (silver staining assay)

Assay [9] concerns RNA polymerase II Ser2 phosphorylation. The assay can be described thus: Western blot, RNA polymerase II Ser2 phosphorylation in SH-SY5Y. It is filed as cell-based, human. Conditions: FIG. 10. The procedure: SH-SY5Y human neuroblastoma cells were grown in DMEM medium (Invitrogen, Cergy Pontoise, France). The HEK 293 human embryonic kidney cell line was grown in MEM medium from Invitrogen. Human foreskin primary fibroblasts (kindly provided by Dr. Gilles Ponzio) were grown in DMEM supplemented with 2 mM L-glutamine and 20 mM HEPES. All the media were supplemented with antibiotics (penicillin-streptomycin) from Lonza and 10% volume of FCS from Invitrogen. Cells were cultured at 37° C. with 5% CO2. Drug treatments were performed on exponentially growing cultures at the indicated time and concentrations. Control experiments were carried out using appropriate dilutions of DMSO. MDCK cell-lines were used to test compounds PKD.
Cells were resuspended and lysed for 30 minutes at 4° C. in Homogenization Buffer [60 mM β-glycerophosphate, 15 mM p-nitrophenyl phosphate, 25 mM MOPS (pH 7.2), 15 mM EGTA, 15 mM MgCl2, 1 mM dithiothreitol, 1 mM sodium vanadate, 1 mM NaF, 1 mM phenylphosphate, 0.1% Nonidet P-40 and protease inhibitor cocktail] and sonicated. After centrifugation (14000 rpm for 15 minutes at 4° C.), the protein concentration was determined in the supernatants by the Bradford protein assay (Bio-Rad).
Whole cell extracts were prepared in buffer containing 100 mM Tris/HCl (pH, 6.8), 1 mM EDTA, 2% SDS and protease inhibitor cocktail. Following heat denaturation for 5 minutes, proteins were separated on 10% or 7% NuPAGE pre-cast Bis-Tris or Tris-Acetate polyacrylamide mini gels (Invitrogen) with MOPS SDS (all but cytochrome C, RNA polymerase II and phospho-Ser2—RNA polymerase II Western blots), MES SDS (cytochrome C), or Tris-Acetate SDS (RNA polymerase II and phospho-Ser2—RNA polymerase II) running buffer depending on protein size. Proteins were transferred to 0.45 μm nitrocellulose filters (Schleicher and Schuell). These were blocked with 5% low fat milk in Tris-Buffered Saline—Tween-20, incubated for 1 h with antibodies (anti-actin: 1:2000) or overnight at 4° C. (cytochome C: 1:500), Rb (1:500), phosphor-Rb (1:500), phospho-Thr320-PP1α (1:1000), RNA polymerase II (1:500), phosphor-Ser2-RNA polymerase II (1:500), Mcl-1 (1:500), caspase-9 (1:1000) and analyzed by Enhanced Chemiluminescence (ECL, Amersham).

Assay [10] concerns LS 174T (Oncodesign). The assay can be described thus: Cell survival, LS 174T (Oncodesign). Format: cell-based. To be noted: Homo sapiens, LS174T; Table 6.
The target in assay [11] is CDK2/cyclin E (Homo sapiens, UniProt P24941). As to the kind of experiment: CDK2/cyclin E kinase assay. It is filed as biochemical. Conditions: Table 5. As to the method:
as §3
(§5) The compounds were tested at various concentrations in the kinase assays, as described in the Methods section.

Assay [12] deals with HCT116 (Oncodesign). As to the kind of experiment: Cell survival, HCT116 (Oncodesign). Format: cell-based. Conditions: Homo sapiens, HCT-116; Table 6.
For assay [13], the system named is B2-CLL lymphocytes. As to the kind of experiment: Survival / cell death of B2-CLL lymphocytes from patients. It is filed as cell-based, human. To be noted: Homo sapiens, Lymphocyte.
Protocol: Cell viability was determined by measuring the reduction of 3-(4,5-dimethylthiazol-2-yl)-5-(3-carboxymethoxyphenyl)-2-(4-sulfophenyl)-2/H-tetrazolium (MTS). Cell death was determined by measuring the level of lactate dehydrogenase activity (LDH) released upon cell lysis.
Assay [14] addresses DYRK1A (Homo sapiens, UniProt Q13627). The assay can be described thus: DYRK1A kinase assay. Format: biochemical. The procedure: as §2, §5
The target in assay [15] is Erk2 (Homo sapiens, UniProt P28482). The assay can be described thus: Erk2 kinase assay. Format: biochemical. To be noted: Table 5. As to the method:
as §2, §5

The target in assay [16] is T5, CDK2/cyclin A (Homo sapiens, UniProt P24941).
T5 construct: made in house; host or cells: insect cells
The assay can be described thus: CDK2/cyclin A kinase assay. It is filed as biochemical. As to the method:
as §2
CDK2/cyclin A (human, recombinant, expressed in insect cells) was assayed as described for CDK1/cyclin B.

Assay [17] has as its system HEK 293 human embryonic kidney cell line. As to the kind of experiment: Cell survival (MTS assay), HEK293. Format: cell-based. Conditions: HEK293, Table 4, MTS assay. As to the method: as §1
Setting [18] is: read-out: Inhibition of the tumor cell-line SHSY-5Y, IC50.
[19] abbreviates: read-out: Inhibition of GSK3beta, IC50.
Where [20] appears, read: read-out: Inhibition of CDK5/p25, IC50.
The mark [21] stands for this setting: read-out: Inhibition of CK1, IC50.
[22] abbreviates: read-out: Inhibition of CDK1/cyclin B, IC50.
Setting [23] is: Table 4, MTS assay, read-out: SH-SY5Y cell survival.
The mark [24] stands for this setting: read-out: Inhibition of DYRK1A, IC50.

Chain of Erk2 (Homo sapiens, UniProt P28482) (P28482 whole entry, species assumed): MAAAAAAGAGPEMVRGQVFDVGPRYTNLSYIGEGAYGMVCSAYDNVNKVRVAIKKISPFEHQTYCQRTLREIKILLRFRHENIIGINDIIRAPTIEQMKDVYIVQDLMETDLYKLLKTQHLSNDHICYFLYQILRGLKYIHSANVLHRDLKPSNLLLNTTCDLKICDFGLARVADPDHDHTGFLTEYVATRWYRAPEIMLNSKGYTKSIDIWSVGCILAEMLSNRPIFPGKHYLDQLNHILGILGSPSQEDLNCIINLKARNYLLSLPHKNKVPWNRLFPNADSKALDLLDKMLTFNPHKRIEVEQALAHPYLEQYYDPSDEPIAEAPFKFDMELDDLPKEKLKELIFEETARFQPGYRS

Regarding `CC(C)n1cnc2c(NCc3ccc(-c4ccccn4)cc3)cc(NC(CO)[C@@H](C)O)nc21` (stereo in doubt) [Ij, (R,R)-2-[[3-isopropyl-7-[[4-(2-pyridyl)phenyl]methylamino]imidazo[4,5-b]pyridin-5-yl]amino]butane-1,3-diol], the pIC50 is 6.82 in assay [1] (setting [18]); 4.89 in [2] (setting [19]); 6.74 in assay [3] (setting [20]); 6.85 in assay [4] (read-out: Inhibition of CDK9/cyclin T, IC50); 6.28 in assay [5] (setting [21]); 6.82 in assay [6] (setting [22]).
Take `CC[C@H](CO)Nc1nc(NCc2ccccc2)c2ncn(C(C)C)c2n1` [(R)-Roscovitine, Roscovitine]: the “competitor effect for Erk2” value in assay [7] is on record as “exhibited a competitor effect”. The “competitor effect for pyridoxal kinase (PDXK)” value in assay [8] is given as “exhibited a competitor effect”. Moreover, the “total RNA pol II” value in assay [9] is reported as “essentially constant”.
Regarding `CC[C@@H](CO)Nc1cc(NCc2ccc(-c3ccccn3)cc2)c2ncn(C(C)C)c2n1` [(S)-perharidine D, (S)-7-[4-(2-Pyridyl)-benzylaminol]-5-[(2-butyl-1ol)amino]-3-iso-propylimidazo[4,5-b]pyridine], the pIC50 in assay [1] (Table 6, MTS assay, read-out: SH-SY5Y cell survival) was 6.18; in assay [2] (Table 5, read-out: GSK-3α/β), 4.61; in [3] (Table 5, read-out: CDK5/p25) it was 6.70; in assay [10], 7.00; in [4] (Table 5, read-out: CDK9/cyclin T), 6.92; in assay [11], 7.00. Also, the pIC50 is 5.72 in assay [5] (Table 5, read-out: CK1); 6.52 in assay [12]; 6.89 in assay [13] (LLC B-cells, read-out: Cell death induction); 6.89 in assay [13] (Table 6, read-out: Chronic Lymphocytic Leukemia cell survival); 6.57 in assay [6] (Table 5, read-out: CDK1/cyclin B); 5.55 in assay [14] (Table 5, read-out: DYRK1A). Further, the pIC50 is 5.05 in assay [15] and 6.82 in [16] (Table 5, read-out: CDK2/cyclin A).
Take `CC(C)n1cnc2c(NCc3ccccc3)cc([N+](=O)[O-])nc21` [Formula Ie]: the pIC50 is 4.13 in [1] (setting [23]); less than 5.00 in assay [2] (Table 4, read-out: GSK3); 6.10 in [3] (Table 4, read-out: CDK5); 6.00 in assay [5] (Table 4, read-out: CK1); 4.34 in assay [17]; 6.00 in assay [6] (Table 4, read-out: CDK1).
On to `CC(C)n1cnc2c(NCc3ccccc3)cc(N)nc21` [Formula If], for which the pIC50 in assay [1] (setting [23]) is less than 4.00; in assay [2] (Table 4, read-out: GSK3), less than 5.00; in assay [3] (Table 4, read-out: CDK5), 5.42; in [5] (Table 4, read-out: CK1), 5.10; in assay [17] it was less than 4.00; in assay [6] (Table 4, read-out: CDK1), 5.40.
Consider `CC(C)n1cnc2c(NCc3ccccc3)cc(NC(=O)C(F)(F)F)nc21` [Formula Ig], for which the pIC50 in [1] (setting [23]) is less than 4.00; in [2] (Table 4, read-out: GSK3), less than 5.00; in assay [3] (Table 4, read-out: CDK5), 6.20; in [5] (Table 4, read-out: CK1), 5.52; in assay [17] it was less than 4.00; in [6] (Table 4, read-out: CDK1) it was 6.28.
As to `CC(C)n1cnc2c(NCc3ccc(-c4ccccn4)cc3)cc(NC[C@H](O)CO)nc21` [Ik, (2S)-3-[[3-isopropyl-7-[[4-(2-pyridyl)phenyl]methylamino]imidazo[4,5-b]pyridin-5-yl]amino]propane-1,2-diol], the pIC50 in [1] (setting [18]) was 6.74; in [2] (setting [19]), less than 5.00; in assay [3] (setting [20]) it was 6.77; in assay [5] (setting [21]), 6.42; in [6] (setting [22]) it was 6.70; in [16] (unit inferred, read-out: Inhibition of CDK2/cyclin A, IC50), 6.92.
Regarding `CC[C@@H](CO)Nc1cc(NCc2ccc(-c3ccccc3)cc2)c2ncn(C(C)C)c2n1` [Il, (2S)-2-[[3-isopropyl-7-[(4-phenylphenyl)methylamino]imidazo[4,5-b]pyridin-5-yl]amino]butan-1-ol], the pIC50 in assay [2] (setting [19]) was less than 5.00; in assay [3] (unit inferred, read-out: Inhibition of CDK5/p25, IC50) it was 6.22; in [5] (setting [21]), 5.70; in assay [14] (setting [24]) it was 5.35.
`CC[C@H](CO)Nc1cc(NCc2ccc(-c3ccccc3)cc2)c2ncn(C(C)C)c2n1` [Im, (R) 2-[[3-isopropyl-7-[(4-phenylphenyl)methylamino]imidazo[4,5-b]pyridin-5-yl]amino]butan-1-ol]: the pIC50 in assay [3] (setting [20]) is 6.09; in assay [5] (setting [21]) it was 5.92.
Turning to `CC[C@@H](N)COc1cc(NCc2ccc(-c3ccccc3)cc2)c2ncn(C(C)C)c2n1` [In, (R)-5-(2-aminobutoxy)-3-isopropyl-N-[(4-phenylphenyl)methyl]imidazo[4,5-b]pyridine-7-amine], the pIC50 in [2] (setting [19]) was 5.15; in assay [3] (setting [20]) it was 6.26; in assay [5] (setting [21]), 6.92; in assay [14] (setting [24]), 5.40.
On to `CC[C@H](N)COc1cc(NCc2ccc(-c3ccccc3)cc2)c2ncn(C(C)C)c2n1` [Ip, (S)-5-(2-aminobutoxy)-3-isopropyl-N-[(4-phenylphenyl)methyl]imidazo[4,5-b]pyridin-7-amine], for which the results for the pIC50 in assay [2] (setting [19]), in assay [5] (setting [21]) and in assay [14] (setting [24]) were 5.15, 6.66 and 5.48, respectively.
In the case of `CC(C)n1cnc2c(NCc3ccc(-c4ccccn4)cc3)cc(NC(CO)CO)nc21` [Perharidine E, 3-Iso-Propyl-5-(1,3-dihydroxypropylamino)-7-[4-(2-pyridyl)-benzylamino]-imidazo[4,5-b]pyridine], the pIC50 in assay [3] (setting [20]) was 6.47 and 6.46; in assay [5] (setting [21]), 6.55.
